Measurements: patent US20240352145A1, “EFFICACY OF ANTI-TROP-2-SN-38 ANTIBODY DRUG CONJUGATES FOR THERAPY OF TUMORS RELAPSED/REFRACTORY TO CHECKPOINT INHIBITORS” (Immunomedics, Inc., priority 2016, published 2024)
pIC50: −log10 of the molar value. Like-named read-outs stand apart in the source and are kept apart here.

Experiments:
BxPC-3 = assay: ADCC activity of hRS7-ADC conjugates; type: cell-based, human; details: 33.3 nM; PBMC effector to target ratio 100:1
From the text: PBMCs were purified from blood purchased from the Blood Center of New Jersey. A Trop-2-positive human pancreatic adenocarcinoma cell line (BxPC-3) was used as the target cell line with an effector to target ratio of 100:1.

MDA-MB-468 = assay: Cytotoxicity (MTS), Example 7, MDA-MB-468; type: cell-based, human; details: MDA-MB-468, 96 h
Method: One day prior to adding the ADC, cells were harvested from tissue culture and plated into 96-well plates at 2000 cells per well. […] Plates were incubated at 37° C. for 96 h. […] Growth inhibition was measured as a percent of growth relative to untreated cells using Microsoft Excel and Prism software (non-linear regression to generate sigmoidal dose response curves which yield IC50-values).

small-cell lung cancer = type: in vivo, human
From the text: This is a person with a diagnosis of small-cell lung cancer, involving their left lung, mediastinal lymph nodes, and MRI evidence of a metastasis to the left parietal brain lobe. Prior chemotherapy includes carboplatin, etoposide, and topotecan, but with no response noted. Radiation therapy also fails to control their disease.

MDA-MB-468 TNBC tumors = assay: MDA-MB-468 TNBC xenograft; type: in vivo, mouse
urothelial cancer = assay: Phase I/II, urothelial cancer cohort; type: in vivo, human
Trop-2 = target: T1, Trop-2 (Homo sapiens, UniProt P09758); assay: In vitro cell binding, multiple cell lines; parameters: endogenous in cells; host or cells: human cancer cell lines (ATCC)
T1 sequence (P09758 27-323): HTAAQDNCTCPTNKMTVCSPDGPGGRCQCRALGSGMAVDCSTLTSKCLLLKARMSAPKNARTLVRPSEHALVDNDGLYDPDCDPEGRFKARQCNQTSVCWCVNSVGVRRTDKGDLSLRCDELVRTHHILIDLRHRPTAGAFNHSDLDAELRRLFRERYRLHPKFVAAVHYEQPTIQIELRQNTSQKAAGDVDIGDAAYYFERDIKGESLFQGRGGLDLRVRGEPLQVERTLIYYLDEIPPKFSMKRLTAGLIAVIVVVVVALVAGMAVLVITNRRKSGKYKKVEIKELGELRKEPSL
Method: In Vitro Cell Binding—LumiGLO Chemiluminescent Substrate System (KPL, Gaithersberg, MD) was used to detect antibody binding to cells. Briefly, cells were plated into a 96 black-well, flat-clear-bottom plate overnight. Antibodies were serially diluted 1:2 and added in triplicate, yielding a concentration range from 0.03 to 66.7 nM. After incubating for 1 h at 4° C., the media was removed and the cells washed with fresh cold media followed by the addition of a 1:20,000 dilution of goat-antihuman horseradish peroxidase-conjugated secondary antibody (Jackson Immunoresearch, West Grove, PA) for 1 h at 4° C. The plates were again washed before the addition of the LumiGLO reagent. Plates were read for luminescence using an Envision plate reader (Perkin Elmer, Boston MA). Data were analyzed by non-linear regression to determine the equilibrium dissociation constant (KD). Statistical comparisons of KD-values were made with Prism GraphPad Software (v4.03) (Advanced Graphics Software, Inc.; Encinitas, CA) using an F-Test on the best-fit curves for the data. Significance was set at P<0.05.

Substance	specific lysis (ADCC) (BxPC-3)	pIC50 (MDA-MB-468)	shrinkage of target left lung mass (small-cell lung cancer; 18 mg/kg once every three weeks, after fifth infusion) [%]	reduction of brain metastasis (small-cell lung cancer; after another 3 months) [%]	reduction of left lung mass (small-cell lung cancer; after another 3 months) [%]	reduction of brain metastasis (small-cell lung cancer; after fifth infusion) [%]	adverse events after second dose (small-cell lung cancer; in vivo)	tumor response (MDA-MB-468 TNBC tumors; 0.12 or 0.20 mg/kg SN-38-equivalents, vs saline, irinotecan, hA20-CL2A-SN-38)	total volume [TV] five weeks after re-treatment (MDA-MB-468 TNBC tumors; mice progressed on hA20-CL2A-SN-38 (0.74±0.41 cm^3), then 0.2 mg/kg) [cm^3]	decrease in tumor size after re-treatment (MDA-MB-468 TNBC tumors; one animal each, tumors progressed to ~0.7 cm^3 on irinotecan) [%]	PR, patients (urothelial cancer; 11 assessable patients, 8 or 10 mg/kg)	median time to progression (urothelial cancer; in vivo) [months]	KD (Trop-2)
IMMU-132	no difference between hRS7-NEM and sacituzumab govitecan	8.41	13	21	25	10	hypotension and a Grade 2 neutropenia	induced significant tumor regression	0.14±0.14	60	6	8.1	sub-nanomolar range
hRS7 IgG	8.5%	–	–	–	–	–	–	–	–	–	–	–	sub-nanomolar range
